According to patent publication EP2067481A1, “Therapeutic use of desacyl ghrelin” (Charité - Universitätsmedizin Berlin, priority 2007, dated 2009):

Assay: Study underlying Fig. 6: cumulative food intake after ip ghrelin and desacyl ghrelin, alone or simultaneously, freely fed rats, light phase
Assay type: in vivo, SD rats
Settings: ghrelin 13 µg/kg ip plus vehicle
Method: Male adult SD rats (Harlan-Winkelmann Co., Borchen, Germany) weighting 250 g were housed in groups of 4 rats/cage under conditions of controlled illumination (12:12 h light/dark cycle, lights on/off: 6:30 a.m./6:30 p.m.), humidity, and temperature (22 ± 2°C). Animals were fed with a standard rat diet (Altromin®, Lage, Germany) and tap water ad libitum. All animals were trained daily to be accustomed to the experimental conditions for 14 days before starting the experiments. During the handling phase, the back position was practiced to make animals familiar with receiving an ip injection.
Rat desacyl ghrelin (0.5 mg/ml; Peptides International, Louisville, USA) or rat ghrelin (1 mg/ml) was dissolved in distilled water and stored at -20°C. Immediately before starting the experiments, peptides were diluted in vehicle solution consisting of sterile 0.15 M NaCl (Braun, Melsungen, Germany) to reach the final concentration of 13 µg (∼4 nmol) ghrelin/kg, and 64 µg (∼20 nmol) or 127 µg (∼40 nmol) desacyl ghrelin/kg body weight. Peptide solutions were kept on ice for the duration of the experiments. […]
On the day of the experiment, freely fed animals were injected ip simultaneously (final volume: 0.5 ml) with vehicle plus vehicle (0.15 M NaCl + 0.15 M NaCl, n=13), ghrelin plus vehicle (13 µg/kg + 0.15 M NaCl, n=13), ghrelin (13 µg/kg) plus 64 µg/kg or 127 µg/kg desacyl ghrelin (n =13 in both groups), or vehicle plus 64 µg/kg desacyl ghrelin (n=13) and returned to single housing cages immediately after the injection. […] Food intake was determined by measuring the difference between the preweighed standard chow and the weight of chow at the end of the first 30 min, 1 h and 2 h food exposure.
The cumulative food intake monitored at the end of the first 30 min, 1 h, and 2 h after peptide or vehicle injection was expressed as food intake (g)/body weight (kg) (Ruter et al. 2003). Data were expressed as mean ± SEM and analyzed by Kruskal-Wallis One Way ANOVA. Differences between groups were evaluated by the Student-Newman-Keuls method; p < 0.05 was considered significant.

Substance: n-octanoyl-ghrelin
- cumulative food intake (2h, vehicle plus vehicle 2.65 ± 0.93): 7.71 ± 0.97 g/kg body weight
- food intake (first half hour, vehicle plus vehicle 1.49 ± 0.72): 5.76 ± 0.68 g/kg body weight
- cumulative food intake (one hour, vehicle plus vehicle 1.49 ± 0.72): 7.29 ± 0.92 g/kg
